Here are results for two compounds from ChEMBL document CHEMBL3813592, “Discovery of Novel Tricyclic Heterocycles as Potent and Selective DPP-4 Inhibitors for the Treatment of Type 2 Diabetes” (ACS Med Chem Lett, 2016).

Activity calls are given as the source filed them. No cut-off for these calls is given here.

Data set [1] has as its system Mus musculus. Description: Antidiabetic activity in C57BL/6N mouse assessed as reduction in blood glucose AUC at 3 mg/kg, po administered for 60 mins followed by dextrose challenge by OGTT. The class given is functional.
Data set [2] has as its system Mus musculus. As to the kind of experiment: Antidiabetic activity in C57BL/6N mouse assessed as reduction in blood glucose AUC at 10 mg/kg, po administered for 60 mins followed by dextrose challenge by OGTT. The format is functional. More on the design: scale not given: the % may be the effect or the level left.
In data set [3] the test system is Mus musculus. As to the kind of experiment: Antidiabetic activity in C57BL/6N mouse assessed as reduction in blood glucose AUC at 1 mg/kg, po administered for 60 mins followed by dextrose challenge by OGTT. The class given is functional. Also noted: scale not given: the % may be the effect or the level left.
The test system of data set [4] is Mus musculus. As to the kind of experiment: Antidiabetic activity in po dosed C57BL/6N mouse assessed as reduction in blood glucose AUC after 60 mins followed by dextrose challenge by OGTT. The class given is functional, organism-based.
Data set [5] has as its system Mus musculus. As to the kind of experiment: Ex vivo inhibition of DPP4 in C57BL/6N mouse blood at 1 to 10 mg/kg, po measured after 24 hrs. The class given is functional, organism-based.
Data set [6] is described as follows: Plasma concentration in C57BL/6N mouse at 3 mg/kg, po administered for 60 mins followed by dextrose challenge during OGTT method. The format is ADME, organism-based.
The nature of data set [7]: Intrinsic clearance in dog hepatocytes assessed per 10^6 cells at 1 uM after 30 to 120 mins by LC-MS/MS analysis. Particulars: read-out: CLH. The class given is ADME, cell-based, Canis lupus familiaris, Hepatocyte.
Data set [8] in a line: Intrinsic clearance in rat hepatocytes assessed per 10^6 cells at 1 uM after 30 to 120 mins by LC-MS/MS analysis. The format is ADME, cell-based, Hepatocyte. Particulars: read-out: CLH.
Data set [9] in a line: Plasma concentration in C57BL/6N mouse at 0.3 mg/kg, po administered for 60 mins followed by dextrose challenge during OGTT method. The class given is ADME, organism-based.
For data set [10], the system named is Mus musculus. Description: Antidiabetic activity in C57BL/6N mouse assessed as reduction in blood glucose AUC at 0.3 mg/kg, po administered for 60 mins followed by dextrose challenge by OGTT. The class given is functional. More on the design: scale not given: the % may be the effect or the level left.
Data set [11] is described as follows: Intrinsic clearance in cynomolgus monkey hepatocytes assessed per 10^6 cells at 1 uM after 30 to 120 mins by LC-MS/MS analysis. Particulars: read-out: CLH. The class given is ADME, cell-based, Macaca fascicularis, Hepatocyte.
Data set [12] in a line: Plasma concentration in C57BL/6N mouse at 1 mg/kg, po administered for 60 mins followed by dextrose challenge during OGTT method. The format is ADME, organism-based.
Data set [13] in a line: Intrinsic clearance in human hepatocytes assessed per 10^6 cells at 1 uM after 30 to 120 mins by LC-MS/MS analysis. Particulars: read-out: CLH. The format is ADME, cell-based, Hepatocyte.
The subject of data set [14] is Mus musculus. Description: Ex vivo inhibition of DPP4 in C57BL/6N mouse blood at 3 to 10 mg/kg, po measured after 2 to 6 hrs. The format is functional.
Data set [15] is described as follows: Plasma concentration in C57BL/6N mouse at 10 mg/kg, po administered for 60 mins followed by dextrose challenge during OGTT method. The class given is ADME, organism-based.

For the compound `Cn1c(=O)cc(N2CCC[C@@H](N)C2)n(Cc2ccccc2C#N)c1=O`, the result in data set [1] was Active.
Consider `CN1C(=O)Cn2c1nc1nc(N3CCC[C@@H](N)C3)n(Cc3cc(F)ccc3C#N)c1c2=O`, for which the Activity in data set [2] was 63%; in data set [3], 52%; in data set [4], “Dose-dependent effect”; in data set [10], 38%; in data set [1] it was 64%. Besides, the inhibition entry in data set [5] is “inactive”. Further, the concentration at 1 h in data set [6] is 0.07 µM; in data set [9], 0.002 µM; in data set [12], 0.01 µM; in [15], 0.235 µM. Further, the hepatocyte CLint at 1 µM was less than 1 µL/min/1e6 cells in data set [7], 0.3 µL/min/1e6 cells in data set [8], less than 1 µL/min/1e6 cells in [11] and 0.1 µL/min/1e6 cells in data set [13]. In data set [14], the “inhibition (INH)” value was more than 80%.
